Results as given in US8053409B2, “Agent for prophylaxis of reflex sympathetic dystrophy after cerebral apoplexy” (Asahi Kasei Pharma Corporation, priority 2006, dated 2011).

Experiments:
[1] = tested on: patients with hemiplegia attributed to cerebrovascular disease (stroke); test: Test of prevention of onset of post-stroke RSD; type: in vivo, human
Source text: Test subjects were 33 patients with hemiplegia attributed to cerebrovascular disease (stroke) at Brunnstrom stage III or lower in either the upper limb or a finger on admission. Patients already developing RSD (shoulder-hand syndrome) on admission and patients with pain in the shoulder joint or swollen paralyzed limbs were excluded from the test. […] On the other hand, 21 test subjects were classified into a rehabilitation alone group (control group) and compared with the EL administration group. Physical therapy and therapeutic exercise, occupational therapy, and the management of the paralyzed limbs were performed thoroughly in all the cases. […] EL administration was initiated 11 to 59 days after an attack of stroke (25.8 days on average) and continued until 5 months after the attack of stroke. The same observation period was applied to the control group. The test subjects were diagnosed as developing RSD (shoulder-hand syndrome) if they had diffuse pain not localized to the shoulder joint, edema involving skin color changes, skin temperature abnormalities, and range of motion limitations, and the practice of their rehabilitation was restricted. These criteria agreed to Veldman's diagnostic criteria or diagnostic criteria, for CRPS-type 1 provided by the International Association for the Study of Pain.
Activities of daily living (ADL) were evaluated on the basis of the Barthel Index (BI) and the range of motion (ROM) of shoulder joint. The movable range of shoulder joint (also referred to as “shoulder ROM”) was regarded as restricted (Shoulder-ROM-restrictions were present.) if either abduction or flexion was restricted in measurement. The test subjects were also examined for sensory impairment, aphasia, and unilateral spatial neglect on admission.
Statistical analysis was conducted with unpaired t-test, Fisher's exact test, or Wilcoxon test, and 5% or lower significance level was regarded as being significant.

[2] = tested on: patients with hemiplegia attributed to cerebrovascular disease (stroke) who developed RSD (shoulder-hand syndrome); test: Test of treatment of post-stroke RSD; type: in vivo, human; details: therapeutic administration group, at completion of administration
Method: EL was administered after the onset of RSD (shoulder-hand syndrome) in the same use and dose as in Example 1 to 11 patients with hemiplegia attributed to cerebrovascular disease (stroke) at Brunnstrom stage III or lower in either the upper limb or a finger on admission, who developed RSD (shoulder-hand syndrome). These patients were classified into a therapeutic administration group. On the other hand, the EL administration group of Example 1 was compared as a control (preventive administration group) with the therapeutic administration group.

[3] = tested on: RSD triggered and developed by a trauma or surgical invasion; details: subjects having no anamnesis of RSD, after a trauma or surgical invasion; cited from earlier work
[4] = EL preventive administration group (12 subjects), 20 units intramuscularly once a week, continued until 5 months after stroke
[5] = preventive administration group, at completion of administration

Compound	Incidence of RSD converted to all patients with hemiplegia attributed to stroke in the facility ([1]; EL administration group, control group approximately 8.7%)	The number of test subjects developing post-stroke RSD: Developed [1, 4]	The number of test subjects developing post-stroke RSD: Not developed [1, 4]	Cases that developed RSD (incidence) ([1]; EL preventive administration group, 1 of the 12 cases, control group 52.4%)	Incidence of RSD when EL administration was initiated within 48 days after stroke ([1]; cases with administration initiated within 48 days after stroke)	Barthel index, Average ± SE [1, 5]	Barthel index, Median [1, 5]	No RSD, the number of persons [1, 5]	Incidence of RSD until discharge from hospital compared with the unadministered patient group ([1]; repetitive administration to hemiplegia patients without RSD on admission)	Barthel index, Average ± SE [2]	Barthel index, Median [2]	No RSD, the number of persons [2]	Preventive effect on the initial onset of RSD [3]
1-butyric acid-7-(L-2-aminobutyric acid)-26-L-aspartic acid-27-L-valine-29-L-alanine-calcitonin [elcatonin]	approximately 1.3%	1	11	8.3%	0%	60.8 ± 9.3	72.5	11	suppressed significantly and remarkably	31.8 ± 7.8	25	0	–
O=C1O[C@H]([C@@H](O)CO)C(O)=C1O [vitamin C]	–	–	–	–	–	–	–	–	–	–	–	–	preventive effect
